Measured values published in patent US10167262B2, “Herbicidal substituted 3-arylpyrazoles” (FMC CORPORATION, priority 2014, dated 2019).

test system: barnyardgrass (Echinochloa crus-galli); assay: Test A pre-/postemergence greenhouse herbicide test, visual injury rating 0-100; type: in vivo; details: Postemergence, 1000 g ai/ha
From the text: (§1) Seeds of plant species selected from barnyardgrass (Echinochloa crus-galli), large (Lg) crabgrass (Digitaria sanguinalis), giant foxtail (Setaria faberii), morningglory (Ipomoea spp.), pigweed (Amaranthus retroflexus), velvetleaf (Abutilon theophrasti), wheat (Triticum aestivum), and corn (Zea mays) were planted into a blend of loam soil and sand and treated preemergence with a directed soil spray using test chemicals formulated in a non-phytotoxic solvent mixture which included a surfactant. At the same time these species were also treated with postemergence applications of test chemicals formulated in the same manner. Plants ranged in height from 2 to 10 cm and were in the one- to two-leaf stage for the postemergence treatment. Treated plants and untreated controls were maintained in a greenhouse for approximately 10 days, after which time all treated plants were compared to untreated controls and visually evaluated for injury. Plant response ratings, summarized in Table A, are based on a 0 to 100 scale where 0 is no effect and 100 is complete control. A dash (-) response means no test result.

Row | Compound | Plant response rating (0 to 100 scale), Barnyardgrass
1 | O=C(c1ccccc1)c1cn(CC(F)F)nc1-c1cc(F)cc(Cl)c1 [Compound 40] | 0
2 | ON=C(c1ccccc1)c1c[nH]nc1-c1cc(Br)cc(Br)c1 [Compound 49] | 0
3 | N#CN=C(c1ccccc1)c1c[nH]nc1-c1cc(Cl)cc(Cl)c1 [Compound 52] | 0
4 | Brc1cc(Br)cc(-c2n[nH]cc2C2(c3ccccc3)SCCS2)c1 [Compound 62] | 0

same assay, conditions: Preemergence, 1000 g ai/ha

Row | Compound | Plant response rating (0 to 100 scale), Barnyardgrass
5 | O=C(c1ccccc1)c1cn(CC(F)F)nc1-c1cc(F)cc(Cl)c1 [Compound 40] | 0
6 | ON=C(c1ccccc1)c1c[nH]nc1-c1cc(Br)cc(Br)c1 [Compound 49] | 0
7 | N#CN=C(c1ccccc1)c1c[nH]nc1-c1cc(Cl)cc(Cl)c1 [Compound 52] | 0
8 | Brc1cc(Br)cc(-c2n[nH]cc2C2(c3ccccc3)SCCS2)c1 [Compound 62] | 0

test system: corn (Zea mays); assay: as above; type: in vivo; details: Postemergence, 1000 g ai/ha
From the text: as §1

Row | Compound | Plant response rating (0 to 100 scale), Corn
9 | O=C(c1ccccc1)c1cn(CC(F)F)nc1-c1cc(F)cc(Cl)c1 [Compound 40] | 0
10 | ON=C(c1ccccc1)c1c[nH]nc1-c1cc(Br)cc(Br)c1 [Compound 49] | 0
11 | N#CN=C(c1ccccc1)c1c[nH]nc1-c1cc(Cl)cc(Cl)c1 [Compound 52] | 0
12 | Brc1cc(Br)cc(-c2n[nH]cc2C2(c3ccccc3)SCCS2)c1 [Compound 62] | 0

same assay, conditions: Preemergence, 1000 g ai/ha

Row | Compound | Plant response rating (0 to 100 scale), Corn
13 | O=C(c1ccccc1)c1cn(CC(F)F)nc1-c1cc(F)cc(Cl)c1 [Compound 40] | 0
14 | ON=C(c1ccccc1)c1c[nH]nc1-c1cc(Br)cc(Br)c1 [Compound 49] | 0
15 | N#CN=C(c1ccccc1)c1c[nH]nc1-c1cc(Cl)cc(Cl)c1 [Compound 52] | 0
16 | Brc1cc(Br)cc(-c2n[nH]cc2C2(c3ccccc3)SCCS2)c1 [Compound 62] | 0

test system: giant foxtail (Setaria faberii); assay: as above; type: in vivo; details: Postemergence, 1000 g ai/ha
From the text: as §1

Row | Compound | Plant response rating (0 to 100 scale), Foxtail, Giant
17 | O=C(c1ccccc1)c1cn(CC(F)F)nc1-c1cc(F)cc(Cl)c1 [Compound 40] | 0
18 | ON=C(c1ccccc1)c1c[nH]nc1-c1cc(Br)cc(Br)c1 [Compound 49] | 0
19 | N#CN=C(c1ccccc1)c1c[nH]nc1-c1cc(Cl)cc(Cl)c1 [Compound 52] | 0
20 | Brc1cc(Br)cc(-c2n[nH]cc2C2(c3ccccc3)SCCS2)c1 [Compound 62] | 0

same assay, conditions: Preemergence, 1000 g ai/ha

Row | Compound | Plant response rating (0 to 100 scale), Foxtail, Giant
21 | O=C(c1ccccc1)c1cn(CC(F)F)nc1-c1cc(F)cc(Cl)c1 [Compound 40] | 0
22 | ON=C(c1ccccc1)c1c[nH]nc1-c1cc(Br)cc(Br)c1 [Compound 49] | 10
23 | N#CN=C(c1ccccc1)c1c[nH]nc1-c1cc(Cl)cc(Cl)c1 [Compound 52] | 0
24 | Brc1cc(Br)cc(-c2n[nH]cc2C2(c3ccccc3)SCCS2)c1 [Compound 62] | 0

test system: large (Lg) crabgrass (Digitaria sanguinalis); assay: as above; type: in vivo; details: Postemergence, 1000 g ai/ha
From the text: as §1

Row | Compound | Plant response rating (0 to 100 scale), Crabgrass, Large
25 | O=C(c1ccccc1)c1cn(CC(F)F)nc1-c1cc(F)cc(Cl)c1 [Compound 40] | 0
26 | ON=C(c1ccccc1)c1c[nH]nc1-c1cc(Br)cc(Br)c1 [Compound 49] | 0
27 | N#CN=C(c1ccccc1)c1c[nH]nc1-c1cc(Cl)cc(Cl)c1 [Compound 52] | 0
28 | Brc1cc(Br)cc(-c2n[nH]cc2C2(c3ccccc3)SCCS2)c1 [Compound 62] | 0

same assay, conditions: Preemergence, 1000 g ai/ha

Row | Compound | Plant response rating (0 to 100 scale), Crabgrass, Large
29 | O=C(c1ccccc1)c1cn(CC(F)F)nc1-c1cc(F)cc(Cl)c1 [Compound 40] | 0
30 | ON=C(c1ccccc1)c1c[nH]nc1-c1cc(Br)cc(Br)c1 [Compound 49] | 0
31 | N#CN=C(c1ccccc1)c1c[nH]nc1-c1cc(Cl)cc(Cl)c1 [Compound 52] | 0
32 | Brc1cc(Br)cc(-c2n[nH]cc2C2(c3ccccc3)SCCS2)c1 [Compound 62] | 0

test system: morningglory (Ipomoea spp.); assay: as above; type: in vivo; details: Postemergence, 1000 g ai/ha
From the text: as §1

Row | Compound | Plant response rating (0 to 100 scale), Morningglory
33 | O=C(c1ccccc1)c1cn(CC(F)F)nc1-c1cc(F)cc(Cl)c1 [Compound 40] | 0
34 | ON=C(c1ccccc1)c1c[nH]nc1-c1cc(Br)cc(Br)c1 [Compound 49] | 0
35 | N#CN=C(c1ccccc1)c1c[nH]nc1-c1cc(Cl)cc(Cl)c1 [Compound 52] | 0

same assay, conditions: Preemergence, 1000 g ai/ha

Row | Compound | Plant response rating (0 to 100 scale), Morningglory
36 | O=C(c1ccccc1)c1cn(CC(F)F)nc1-c1cc(F)cc(Cl)c1 [Compound 40] | 0
37 | ON=C(c1ccccc1)c1c[nH]nc1-c1cc(Br)cc(Br)c1 [Compound 49] | 0
38 | N#CN=C(c1ccccc1)c1c[nH]nc1-c1cc(Cl)cc(Cl)c1 [Compound 52] | 0

test system: pigweed (Amaranthus retroflexus); assay: as above; type: in vivo; details: Postemergence, 1000 g ai/ha
From the text: as §1

Row | Compound | Plant response rating (0 to 100 scale), Pigweed
39 | O=C(c1ccccc1)c1cn(CC(F)F)nc1-c1cc(F)cc(Cl)c1 [Compound 40] | 40
40 | ON=C(c1ccccc1)c1c[nH]nc1-c1cc(Br)cc(Br)c1 [Compound 49] | 90
41 | N#CN=C(c1ccccc1)c1c[nH]nc1-c1cc(Cl)cc(Cl)c1 [Compound 52] | 90
42 | Brc1cc(Br)cc(-c2n[nH]cc2C2(c3ccccc3)SCCS2)c1 [Compound 62] | 100

same assay, conditions: Preemergence, 1000 g ai/ha

Row | Compound | Plant response rating (0 to 100 scale), Pigweed
43 | O=C(c1ccccc1)c1cn(CC(F)F)nc1-c1cc(F)cc(Cl)c1 [Compound 40] | 0
44 | ON=C(c1ccccc1)c1c[nH]nc1-c1cc(Br)cc(Br)c1 [Compound 49] | 80
45 | N#CN=C(c1ccccc1)c1c[nH]nc1-c1cc(Cl)cc(Cl)c1 [Compound 52] | 50
46 | Brc1cc(Br)cc(-c2n[nH]cc2C2(c3ccccc3)SCCS2)c1 [Compound 62] | 80

test system: velvetleaf (Abutilon theophrasti); assay: as above; type: in vivo; details: Postemergence, 1000 g ai/ha
From the text: as §1

Row | Compound | Plant response rating (0 to 100 scale), Velvetleaf
47 | O=C(c1ccccc1)c1cn(CC(F)F)nc1-c1cc(F)cc(Cl)c1 [Compound 40] | 0
48 | ON=C(c1ccccc1)c1c[nH]nc1-c1cc(Br)cc(Br)c1 [Compound 49] | 80
49 | N#CN=C(c1ccccc1)c1c[nH]nc1-c1cc(Cl)cc(Cl)c1 [Compound 52] | 100
50 | Brc1cc(Br)cc(-c2n[nH]cc2C2(c3ccccc3)SCCS2)c1 [Compound 62] | 90

same assay, conditions: Preemergence, 1000 g ai/ha

Row | Compound | Plant response rating (0 to 100 scale), Velvetleaf
51 | O=C(c1ccccc1)c1cn(CC(F)F)nc1-c1cc(F)cc(Cl)c1 [Compound 40] | 0
52 | ON=C(c1ccccc1)c1c[nH]nc1-c1cc(Br)cc(Br)c1 [Compound 49] | 0
53 | N#CN=C(c1ccccc1)c1c[nH]nc1-c1cc(Cl)cc(Cl)c1 [Compound 52] | 60
54 | Brc1cc(Br)cc(-c2n[nH]cc2C2(c3ccccc3)SCCS2)c1 [Compound 62] | 60

test system: wheat (Triticum aestivum); assay: as above; type: in vivo; details: Postemergence, 1000 g ai/ha
From the text: as §1

Row | Compound | Plant response rating (0 to 100 scale), Wheat
55 | O=C(c1ccccc1)c1cn(CC(F)F)nc1-c1cc(F)cc(Cl)c1 [Compound 40] | 0
56 | ON=C(c1ccccc1)c1c[nH]nc1-c1cc(Br)cc(Br)c1 [Compound 49] | 0
57 | N#CN=C(c1ccccc1)c1c[nH]nc1-c1cc(Cl)cc(Cl)c1 [Compound 52] | 0
58 | Brc1cc(Br)cc(-c2n[nH]cc2C2(c3ccccc3)SCCS2)c1 [Compound 62] | 0

same assay, conditions: Preemergence, 1000 g ai/ha

Row | Compound | Plant response rating (0 to 100 scale), Wheat
59 | O=C(c1ccccc1)c1cn(CC(F)F)nc1-c1cc(F)cc(Cl)c1 [Compound 40] | 0
60 | ON=C(c1ccccc1)c1c[nH]nc1-c1cc(Br)cc(Br)c1 [Compound 49] | 0
61 | N#CN=C(c1ccccc1)c1c[nH]nc1-c1cc(Cl)cc(Cl)c1 [Compound 52] | 0
62 | Brc1cc(Br)cc(-c2n[nH]cc2C2(c3ccccc3)SCCS2)c1 [Compound 62] | 0
